Inhibition and melting point data for 28 compounds are collected here from patent US20090197859A1 (Pfizer Inc., priority 2008, published 2009).

Structures are written as SMILES.

Data set [1] concerns the target T1, cloned human 5-HT6 receptor (Homo sapiens, UniProt P50406).
T1 construct: host or cells: HeLa cells, G-418 selection, membrane preparation
As to the kind of experiment: 5-HT6 Receptor Binding Assay ([3H]-LSD radioligand, SPA). The settings on record: read-out: 5HT6 % inh @ 1 uM. The method in brief:
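Membranes from HeLa cells expressing cloned human 5-HT6 receptor, mixed with WGA-coated SPA beads in 20 mM HEPES, 10 mM MgCl2, 150 mM NaCl, 1 mM EDTA pH 7.4 with [3H]-LSD; 1 h at room temperature. Eleven concentrations in duplicate; one-site fit IC50 converted to Ki by Cheng-Prusoff.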

T1 sequence (P50406 whole entry): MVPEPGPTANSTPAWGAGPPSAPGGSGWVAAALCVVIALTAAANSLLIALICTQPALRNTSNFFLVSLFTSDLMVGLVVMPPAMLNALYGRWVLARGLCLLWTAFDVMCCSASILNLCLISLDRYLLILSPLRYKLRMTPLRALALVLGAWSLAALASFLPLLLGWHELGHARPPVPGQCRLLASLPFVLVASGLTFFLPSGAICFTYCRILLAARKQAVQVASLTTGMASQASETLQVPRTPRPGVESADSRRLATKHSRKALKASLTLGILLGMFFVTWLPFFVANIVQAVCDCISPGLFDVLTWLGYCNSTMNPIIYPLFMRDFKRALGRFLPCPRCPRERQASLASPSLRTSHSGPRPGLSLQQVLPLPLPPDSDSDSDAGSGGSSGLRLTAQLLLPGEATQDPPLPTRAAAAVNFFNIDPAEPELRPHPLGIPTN

Turning to `Cc1cccc(CN(C)C(=O)c2cccc(N3CCN(C)CC3)n2)c1` [Example 73, 6-(4-Methyl-piperazin-1-yl)-pyridine-2-carboxylic acid methyl-(3-methyl-benzyl)-amide], the melting point lay in the range of 101 to 102 °C. The inhibition at 1 µM in data set [1] is 91.9%.
For `O=C(c1cccc(N2CCNCC2)n1)N1CCCCC1c1ccc(F)cc1` (centres unmarked) [Example 29, [2-(4-Fluoro-phenyl)-piperidin-1-yl]-(6-piperazin-1-yl-pyridin-2-yl)-methanone] the same measures were 102 to 103.2 °C and 75.1%.
For `O=C(c1cccc(N2CCCNCC2)n1)N1CCCCC1c1ccccc1F` (centres unmarked) [Example 31, (6-[1,4]Diazepan-1-yl-pyridin-2-yl)-[2-(2-fluoro-phenyl)-piperidin-1-yl]-methanone] the same measures were 183.4 to 184 °C and 94.5%.
The corresponding values for `Cc1ccccc1[C@H]1CCCCN1C(=O)c1cccc(N2CCN(C)CC2)n1` [Example 62, [6-(4-Methyl-piperazin-1-yl)-pyridin-2-yl]-((R)-2-o-tolyl-piperidin-1-yl)-methanone] are 188 to 188.7 °C and 70%.
`CN1CCN(c2cccc(C(=O)N(C)Cc3cccc(F)c3)n2)CC1` [Example 70, 6-(4-Methyl-piperazin-1-yl)-pyridine-2-carboxylic acid (3-fluoro-benzyl)-methyl-amide] returned a melting point of 77 to 78 °C. Also, the inhibition at 1 µM in data set [1] came to 74.9%.
For `CN1CCC(c2cccc(C(=O)N3CCC(Oc4ccccc4Cl)CC3)n2)CC1` [Example 96, [4-(2-Chloro-phenoxy)-piperidin-1-yl]-(1′-methyl-1′,2′,3′,4′,5′,6′-hexahydro-[2,4′]bipyridinyl-6-yl)-methanone] the same measures were 119 to 121 °C and 85.8%.
The corresponding values for `Cc1ccccc1[C@@H](C)N(C)C(=O)c1cccc(N2CCN(C)CC2)n1` [Example 61, 6-(4-Methyl-piperazin-1-yl)-pyridine-2-carboxylic acid methyl-((R)-1-o-tolyl-ethyl)-amide] are 142 to 143 °C and 86.7%.
The corresponding values for `Cc1cccc(O[C@H]2CCN(C(=O)c3cccc(N4CCCN(C)CC4)n3)C2)c1` [Example 68, [6-(4-Methyl-[1,4]diazepan-1-yl)-pyridin-2-yl]-((S)-3-m-tolyloxy-pyrrolidin-1-yl)-methanone] are 78 to 80 °C and 98.2%.
`CN1CCN(c2cccc(C(=O)N3CCC[C@H](Oc4cccc(Cl)c4)C3)n2)CC1` [Example 77, [(S)-3-(3-Chloro-phenoxy)-piperidin-1-yl]-[6-(4-methyl-piperazin-1-yl)-pyridin-2-yl]-methanone]: the melting point was in the range of 78 to 80 °C. For the same compound, the inhibition at 1 µM in data set [1] was found to be 99.5%.
On to `Cc1ccc(F)cc1C1CCN(C(=O)c2cccc(C3CCN(C)C3)n2)CC1` (centres unmarked) [Example 112, [4-(5-Fluoro-2-methyl-phenyl)-piperidin-1-yl]-[6-(1-methyl-pyrrolidin-3-yl)-pyridin-2-yl]-methanone], for which the melting point lay within 139.6 to 141.41 °C. Also, in data set [1], the inhibition at 1 µM is 97.7%.
Turning to `Cc1cccc([C@H]2CCCCN2C(=O)c2cccc(N3CCN(C)CC3)n2)c1` [Example 52, [6-(4-Methyl-piperazin-1-yl)-pyridin-2-yl]-((R)-2-m-tolyl-piperidin-1-yl)-methanone], the melting point lay within 142 to 142.5 °C. The inhibition at 1 µM in data set [1] worked out at 96.3%.
Regarding `CN1CC(c2cccc(C(=O)N3CCC(Oc4ccc(F)cc4)CC3)n2)C1` [Example 97, [4-(4-Fluoro-phenoxy)-piperidin-1-yl]-[6-(1-methyl-azetidin-3-yl)-pyridin-2-yl]-methanone], the melting point is 141.6 to 142.9 °C. Further, the inhibition at 1 µM in data set [1] is 79.6%.
Compound `CN1CCN(c2cccc(S(=O)(=O)N3CCCCC3c3ccccc3F)n2)CC1` (centres unmarked) [Example 79, 1-{6-[2-(2-Fluoro-phenyl)-piperidine-1-sulfonyl]-pyridin-2-yl}-4-methyl-piperazine] registered a melting point of 195.3 to 196.4 °C. Besides, in data set [1], the inhibition at 1 µM was 90.2%.
For `Cc1cccc(F)c1C1CCN(C(=O)c2cccc(C3CCN(C)C3)n2)CC1` (centres unmarked) [Example 111, [4-(2-Fluoro-6-methyl-phenyl)-piperidin-1-yl]-[6-(1-methyl-pyrrolidin-3-yl)-pyridin-2-yl]-methanone] the same measures were 122.6 to 123.2 °C and 104%.
For `Cc1ccccc1O[C@H]1CCCN(C(=O)c2cccc(N3CCCNCC3)n2)C1` [Example 45, (6-[1,4]Diazepan-1-yl-pyridin-2-yl)-((S)-3-o-tolyloxy-piperidin-1-yl)-methanone] the same measures were 118 to 119.7 °C and 95.4%.
In turn, `Cc1cccc(O[C@@H]2CCCN(C(=O)c3cccc(N4CCCNCC4)n3)C2)c1` [Example 48, (6-[1,4]Diazepan-1-yl-pyridin-2-yl)-((R)-3-m-tolyloxy-piperidin-1-yl)-methanone] returned a melting point of 158 to 160 °C. In addition, the inhibition at 1 µM in data set [1] came out at 86.1%.
For `Cc1cccc(O[C@H]2CCCN(C(=O)c3cccc(N4CCN(C)CC4)n3)C2)c1` [Example 76, [6-(4-Methyl-piperazin-1-yl)-pyridin-2-yl]-((S)-3-m-tolyloxy-piperidin-1-yl)-methanone] the same measures were 73 to 75 °C and 99%.
For `Cc1cccc(O[C@H]2CCCN(C(=O)c3cccc(N4CCCNCC4)n3)C2)c1` [Example 44, (6-[1,4]Diazepan-1-yl-pyridin-2-yl)-((S)-3-m-tolyloxy-piperidin-1-yl)-methanone], the melting point was 184 to 185.6 °C. Further, the inhibition at 1 µM in data set [1] came out at 99.7%.
The corresponding values for `Cc1ccccc1[C@@H]1CCCCN1C(=O)c1cccc(N2CCN(C)CC2)n1` [Example 63, [6-(4-Methyl-piperazin-1-yl)-pyridin-2-yl]-((S)-2-o-tolyl-piperidin-1-yl)-methanone] are 136.7 to 137.2 °C and 77.4%.
The corresponding values for `O=C(c1cccc(N2CCCNCC2)n1)N1CCC[C@H](Oc2ccccc2F)C1` [Example 40, (6-[1,4]Diazepan-1-yl-pyridin-2-yl)-[(S)-3-(2-fluoro-phenoxy)-piperidin-1-yl]-methanone] are 158 to 159 °C and 100%.
`O=C(c1cccc(N2CCCNCC2)n1)N1CCC[C@H](Oc2cccc(F)c2)C1` [Example 38, (6-[1,4]Diazepan-1-yl-pyridin-2-yl)-[(S)-3-(3-fluoro-phenoxy)-piperidin-1-yl]-methanone] returned a melting point of 96.9 to 97.5 °C. Also, the inhibition at 1 µM in data set [1] was found to be 99.4%.
As for `O=C(c1cccc(N2CCCNCC2)n1)N1CCC[C@H](Oc2ccc(F)cc2)C1` [Example 39, (6-[1,4]Diazepan-1-yl-pyridin-2-yl)-[(S)-3-(4-fluoro-phenoxy)-piperidin-1-yl]-methanone], the melting point was in the range of 107.9 to 109 °C. The inhibition at 1 µM in data set [1] was found to be 82%.
For `Cc1ccc(C2CCCCN2C(=O)c2cccc(N3CCCNCC3)n2)cc1` (centres unmarked) [Example 37, (6-[1,4]Diazepan-1-yl-pyridin-2-yl)-(2-p-tolyl-piperidin-1-yl)-methanone] the same measures were 147.9 to 148.5 °C and 71.6%.
For `Cc1cccc(O[C@@H]2CCN(C(=O)c3cccc(N4CCCN(C)CC4)n3)C2)c1` [Example 19, [6-(4-Methyl-[1,4]diazepan-1-yl)-pryidin-2-yl]-((R)-3-m-tolyloxy-pyrrolidin-1-yl)-methanone] the same measures were 82 to 84 °C and 78.5%.
For `CN1CCN(c2cccc(C(=O)N3CCCC[C@H]3c3ccccc3F)n2)CC1` [Example 56, [(S)-2-(2-Fluoro-phenyl)-piperidin-1-yl]-[6-(4-methyl-piperazin-1-yl)-pyridin-2-yl]-methanone] the same measures were 111.7 to 112.2 °C and 90.7%.
Turning to `Cc1ccc(CN(C)C(=O)c2cccc(N3CCN(C)CC3)n2)cc1` [Example 90, 6-(4-Methyl-piperazin-1-yl)-pyridine-2-carboxylic acid methyl-(4-methyl-benzyl)-amide], the melting point lay in the range of 98 to 99 °C. Further, the inhibition at 1 µM in data set [1] came to 89.4%.
The corresponding values for `CN1CCN(c2cccc(C(=O)N(C)Cc3ccccc3C(F)(F)F)n2)CC1` [Example 92, 6-(4-Methyl-piperazin-1-yl)-pyridine-2-carboxylic acid methyl-(2-trifluoromethyl-benzyl)-amide] are 199.5 to 200.6 °C and 83%.
For `CN1CCN(c2cccc(C(=O)N(C)Cc3ccccc3Cl)n2)CC1` [Example 65, 6-(4-Methyl-piperazin-1-yl)-pyridine-2-carboxylic acid (2-chloro-benzyl)-methyl-amide] the same measures were 73 to 74 °C and 89.6%.
